Source: patent US20220288048A1, “PIMAVANSERIN FOR TREATING SCHIZOPHRENIA OR FOR TREATING PSYCHOSIS SECONDARY TO NEURODEGENERATIVE DISORDERS OR DEPRESSIVE DISORDER” (ACADIA Pharmaceuticals Inc., priority 2019, published 2022)
Entries after “also recorded” stand apart in the source; their conditions may differ.

Test system: adult schizophrenia patients
Assay: 6-week adjunctive pimavanserin study: safety and adverse events
Assay type: in vivo, human
Method: The effect of pimavanserin as an adjunctive treatment in adult schizophrenia patients with a persistent inadequate response (i.e., partial responders) to their existing antipsychotic therapy was tested. 396 patients with moderate-to-severe psychotic symptoms were randomized to receive either pimavanserin or placebo added to existing antipsychotic treatment.
Patients were administered a daily dose of pimavanserin or a placebo for six weeks. The dose started at 20 mg and could be adjusted to 34 mg or 10 mg between weeks 1 and 3. The majority of patients (56%) completed the study at the highest dose level.
The safety of the pimavanserin arm was similar to placebo, with no new signals observed. […] The overall number of SAEs and AEs leading to discontinuation was low. The most commonly reported AEs leading to discontinuation of treatment were from the psychiatric disorders system and seen in the active arm.

CC(C)COc1ccc(CNC(=O)N(Cc2ccc(F)cc2)C2CCN(C)CC2)cc1 [Pimavanserin, N-(4-Fluorophenylmethyl)-N-(1-methylpiperidin-4-yl)-N′-(4-(2-methylpropyloxy)phenylmethyl)carbamide]
Patients who completed the study (6-week study): Approximately 88% | QT prolongation (6-week study): Minimal QT prolongation | Vital signs, weight, metabolic syndrome, and extrapyramidal symptoms compared to adjunctive placebo (6-week study): did not result in clinically significant differences; also recorded: No effect was seen | Any Related Serious Treatment-Emergent Adverse Event, Events n (Safety Analysis Set, N = 198): 2 | Any Related Serious Treatment-Emergent Adverse Event, Subjects (%) (Safety Analysis Set, N = 198): 0.5% | Any Related Serious Treatment-Emergent Adverse Event, Subjects n (Safety Analysis Set, N = 198): 1 | Any Related Treatment-Emergent Adverse Event, Events n (Safety Analysis Set, N = 198): 46 | Any Related Treatment-Emergent Adverse Event, Subjects (%) (Safety Analysis Set, N = 198): 16.7% | Any Related Treatment-Emergent Adverse Event, Subjects n (Safety Analysis Set, N = 198): 33 | Any Serious Treatment-Emergent Adverse Event, Events n (Safety Analysis Set, N = 198): 3 | Any Serious Treatment-Emergent Adverse Event, Subjects (%) (Safety Analysis Set, N = 198): 1.0% | Any Serious Treatment-Emergent Adverse Event, Subjects n (Safety Analysis Set, N = 198): 2 | Any Treatment-Emergent Adverse Event Leading to Discontinuation or Study Termination, Events n (Safety Analysis Set, N = 198): 7 | Any Treatment-Emergent Adverse Event Leading to Discontinuation or Study Termination, Subjects (%) (Safety Analysis Set, N = 198): 2.5% | Any Treatment-Emergent Adverse Event Leading to Discontinuation or Study Termination, Subjects n (Safety Analysis Set, N = 198): 5 | Any Treatment-Emergent Adverse Event, Events n (Safety Analysis Set, N = 198): 142 | Any Treatment-Emergent Adverse Event, Subjects (%) (Safety Analysis Set, N = 198): 40.4% | Any Treatment-Emergent Adverse Event, Subjects n (Safety Analysis Set, N = 198): 80 | Any Serious Treatment-Emergent Adverse Event, Subjects (%) (Safety Analysis Set, N = 198, listed as pimavanserin): 1% | Adverse events reported in at least 5% of patients (pimavanserin group, 6-week study): headache, somnolence, and insomnia
